US9440951B2, “Quinolone compound” (priority 2011, dated 2016)
In brackets after ≈: the same amount, converted by molar mass. Where two headings read alike, the source gives them in different places.

What was measured:
[1] = test system: C. difficile; assay: In vitro antibacterial activity: MIC by broth microdilution; assay type: cell-based, Clostridium difficile; conditions: Clostridioides difficile, anaerobic, tested range 0.008 to 8 μg/ml
Experimental: MICs (minimum inhibitory concentrations) were determined by the broth microdilution technique with 96-well microdilution plates. […] The plates were filled with 100 μl of reinforced clostridial medium (Oxoid; Unipath Ltd., Basingstoke, United Kingdom) per well containing the final antibiotic concentrations. The plates were thawed and preincubated for 3 hours in an anaerobic chamber (Thermal, USA) containing an atmosphere of 80% N2, 15% CO2, and 5% H2. The bacterial inocula were prepared by suspending growth from 48 hours cultures in reinforced clostridial medium. The final inoculum was approximately 1.0×10^5-6 CFU/well. The plates were incubated for 48 hours at 37° C. in the anaerobic chamber. The MIC was defined as the lowest antibiotic concentration that inhibited visible growth. Ciprofloxacin, vancomycin and metronidazole were used as a positive control.

[2] = strain C. difficile ATCC43255, 48 hours at 37° C., read-out: MIC against C. difficile ATCC43255
[3] = strain C. difficile ATCC70092, 48 hours at 37° C., read-out: MIC against C. difficile ATCC70092
[4] = strain C. difficile ATCC7000057, 48 hours at 37° C., read-out: MIC against C. difficile ATCC7000057
[5] = strain C. difficile IQCC23903, 48 hours at 37° C., read-out: MIC against C. difficile IQCC23903

| MIC [1, 2] | MIC [1, 3] | MIC [1, 4] | MIC [1, 5] | melting point | Structure (SMILES) |
| --- | --- | --- | --- | --- | --- |
| 0.032 to 0.125 µg/mL (≈ 0.0789 to 0.308 µM) | 0.032 to 0.125 µg/mL (≈ 0.0789 to 0.308 µM) | 0.032 to 0.125 µg/mL (≈ 0.0789 to 0.308 µM) | 0.063 to 0.25 µg/mL (≈ 0.155 to 0.617 µM) | > 300 °C | Cc1c(-c2cnc3[nH]c(=O)ccc3c2)c(F)cc2c(=O)c(C(=O)O)cn(C3CC3)c12 [Compound 1-2] |
| 0.016 to 0.063 µg/mL (≈ 0.0423 to 0.167 µM) | 0.008 to 0.063 µg/mL (≈ 0.0211 to 0.167 µM) | 0.016 to 0.063 µg/mL (≈ 0.0423 to 0.167 µM) | 0.032 to 0.063 µg/mL (≈ 0.0846 to 0.167 µM) | – | Cc1c(-c2cnc(N)c(C#N)c2)c(F)cc2c(=O)c(C(=O)O)cn(C3CC3)c12 [Compound 2-18] |
| 0.008 to 0.032 µg/mL (≈ 0.0194 to 0.0777 µM) | 0.008 to 0.032 µg/mL (≈ 0.0194 to 0.0777 µM) | 0.016 to 0.032 µg/mL (≈ 0.0389 to 0.0777 µM) | 0.008 to 0.063 µg/mL (≈ 0.0194 to 0.153 µM) | 307 to 311 °C | Cc1c(-c2cc(Cl)c3nccn3c2)c(F)cc2c(=O)c(C(=O)O)cn(C3CC3)c12 [Compound 3-11] |
